Tests used:
[1] = Cytotoxicity towards healthy cell line; format: cell-based, monkey; details: monkey, COS-7 kidney cells; COS7; 25 μM; read-out: % of Inhibition (cytotoxic screening)
[2] = system: lipid peroxidation in rat brain homogenate; experiment: Inhibition of lipid peroxidation (TBARS) in rat brain homogenate, FeSO4-induced; format: biochemical
Protocol: Adult male Wistar rats (200–250 g) were provided by the Instituto de Fisiología Celular, Universidad Nacional Autónoma de México (UNAM). The procedures and care of animals were conducted in conformity with the Mexican Official Norm for Animal Care and Handling NOM-062-ZOO-1999. They were maintained at 23 ± 2 °C on a 12/12 h light-dark cycle with ad libitum access to food and water.
Animal sacrifice was carried out avoiding unnecessary pain. The rats were sacrificed with CO2. The cerebral tissue (whole brain) was rapidly dissected and homogenized in phosphate-buffered saline (PBS) solution (0.2 g of KCl, 0.2 g of KH2PO4, 8 g of NaCl, and 2.16 g of NaHPO4.7H2O/L, pH adjusted to 7.4) as described elsewhere to produce a 1/10 (w/v) homogenate. The homogenate was centrifuged at 800 rcf (relative centrifugal field) for 10 min. The supernatant protein content was measured using Folin and Ciocalteu’s phenol reagent and adjusted with PBS at 2.666 mg of protein/mL.
As an index of lipid peroxidation, TBARS levels were measured using rat brain homogenates according to the method described by Ng and co-workers, with some modifications. A supernatant (375 µL) was added with 50 µL of 20 µM EDTA and 25 µL of each sample concentration dissolved in DMSO (25 µL of DMSO for the control group) and incubated at 37 °C for 30 min. The lipid peroxidation was started adding 50 µL of freshly prepared 100 µM FeSO4 solution (final concentration 10 µM) and incubated at 37 °C for 1h. The TBARS measurements were obtained as described by Ohkawa and co-workers, with some modifications. To each tube 500 µL of TBA reagent (0.5% 2-thiobarbituric acid in 0.05 N NaOH and 30% trichloroacetic acid, in 1:1 ratio) was added and the final suspension was cooled on ice for 10 min, centrifuged at 13,400 rcf for 5 min and heated at 80 °C in a water bath for 30 min. After cooling at room temperature, the absorbance of 200 µL of supernatant was measured at λ = 540 nm in a Microplate Reader Synergy/HT BIOTEK Instrument, Inc., Winooski, VT, USA. The concentration of TBARS was calculated by interpolation on a standard curve of tetra-methoxypropane (TMP) as a precursor of MDA [38]. Results are expressed as n moles of TBARS per mg of protein. The inhibition ratio (IR [%]) was calculated using the formula IR = (C − E) × 100/C, where C is the control absorbance and E is the sample absorbance. Butylated hydroxytoluene (BHT) and α tocopherol were used as positive standards. All data are presented as mean ± standard error (SEM). The data were analyzed by one-way analysis of variance (ANOVA) followed by Dunnett’s test for comparison against a control. Values of p ≤ 0.05 (*) and p ≤ 0.01 (**) were considered statistically significant.

[3] = system: K562 (human chronic myelogenous leukemia); experiment: Cytotoxicity, sulforhodamine B (SRB) microculture assay; format: cell-based; details: Homo sapiens, 25 μM, read-out: % of Inhibition (cytotoxic screening)
Protocol: (§1) The cytotoxicity of all compounds was tested against six cancer cell lines: U251 (human glioblastoma cell line), PC-3 (human prostate adenocarcinoma), K562 (human chronic myelogenous leukemia), HCT-15 (human colon adenocarcinoma), MCF-7 (human mammary adenocarcinoma), and SKLU-1 (human lung adenocarcinoma). Cell lines were supplied by the U.S. National Cancer Institute (NCI). The cell lines were cultured in an RPMI-1640 medium supplemented with 10% fetal bovine serum, […] L-glutamine, 10,000 units/mL penicillin G sodium, 10,000 µg/mL streptomycin sulfate, 25 µg/mL amphotericin B (Invitrogen/Gibco™, Thermo Fisher Scientific, Waltham, MA, USA), and 1% non-essential amino acids (Gibco). They were maintained at 37 °C in a humidified atmosphere with 5% CO2. […] The human tumor cytotoxicity was determined using the protein-binding dye sulforhodamine B (SRB) in a microculture assay to measure cell growth, as described in the protocols established by the NCI [39, 40, 41].

[4] = system: MCF-7 (human mammary adenocarcinoma); experiment: as above; format: cell-based; details: Homo sapiens, MCF7, 25 μM, read-out: % of Inhibition (cytotoxic screening)
Protocol: as §1

[5] = system: PC-3 (human prostate adenocarcinoma); experiment: as above; format: cell-based; details: Homo sapiens, 25 μM, read-out: % of Inhibition (cytotoxic screening)
Protocol: as §1

[6] = system: HCT-15 (human colon adenocarcinoma); experiment: as above; format: cell-based; details: Homo sapiens, 25 μM, read-out: % of Inhibition (cytotoxic screening)
Protocol: as §1

[7] = system: SKLU-1 (human lung adenocarcinoma); experiment: as above; format: cell-based; details: Homo sapiens, SK-LU-1, 25 μM, read-out: % of Inhibition (cytotoxic screening)
Protocol: as §1

[8] = system: U251 (human glioblastoma cell line); experiment: as above; format: cell-based; details: Homo sapiens, U-251, 25 μM, read-out: % of Inhibition (cytotoxic screening)
Protocol: as §1

**Q.** With `O=C(/C=C(O)/C=C/c1cccs1)/C=C/c1cccs1` [ThiopheneCurc, Thiophenecurcumin] as the compound, how does the inhibition at 25 µM [1] read?
**A.** The inhibition at 25 µM was 0%.

**Q.** What about the “Inhibition (%) of lipid peroxidation” value ([2]; 10 μM, mean ± SEM, n = 3) of the same compound?
**A.** The value was 17.68 ± 0.97%.

**Q.** What about the TBARS ([2]; 10 μM, mean ± SEM, n = 3) of the same compound?
**A.** The TBARS was 4.398 ± 0.177 nmol/mg prot.

**Q.** And the “Inhibition (%) of lipid peroxidation” value ([2]; 17.78 μM, mean ± SEM, n = 3)?
**A.** The value was 40.94 ± 0.36%.

**Q.** What about the TBARS ([2]; 17.78 μM, mean ± SEM, n = 3) of the same compound?
**A.** Its TBARS is 3.157 ± 0.139 nmol/mg prot.

**Q.** And the “Inhibition (%) of lipid peroxidation” value ([2]; 31.62 μM, mean ± SEM, n = 3)?
**A.** The value was 61.81 ± 1.08%.

**Q.** And the TBARS ([2]; 31.62 μM, mean ± SEM, n = 3)?
**A.** Its TBARS is 2.042 ± 0.116 nmol/mg prot.

**Q.** What about the “Inhibition (%) of lipid peroxidation” value ([2]; 56.23 μM, mean ± SEM, n = 3) of the same compound?
**A.** The value was 71.25 ± 1.79%.

**Q.** And the TBARS ([2]; 56.23 μM, mean ± SEM, n = 3)?
**A.** The TBARS was 1.528 ± 0.035 nmol/mg prot.

**Q.** And the “Inhibition (%) of lipid peroxidation” value ([2]; 100 μM, mean ± SEM, n = 3)?
**A.** Its value is 73.06 ± 3.06%.

**Q.** And the TBARS ([2]; 100 μM, mean ± SEM, n = 3)?
**A.** Its TBARS is 1.425 ± 0.094 nmol/mg prot.

**Q.** What about the “Inhibition (%) of lipid peroxidation” value ([2]; 177.83 μM, mean ± SEM, n = 3) of the same compound?
**A.** The value was 66.63 ± 3.83%.

**Q.** And the TBARS ([2]; 177.83 μM, mean ± SEM, n = 3)?
**A.** The TBARS was 1.766 ± 0.119 nmol/mg prot.

**Q.** What about the “% of Inhibition (lipoperoxidation screening)” value (from here on “% of Inhibition”) ([2]; concentration 1 (unit not given)) of the same compound?
**A.** The value was 0.23%.

**Q.** What about the “% of Inhibition” value ([2]; concentration 10 (unit not given)) of the same compound?
**A.** Its value is 25.43%.

**Q.** And the “% of Inhibition” value ([2]; concentration 100 (unit not given))?
**A.** The value was 51.90%.

**Q.** What about the IC50 ([2]; rat brain homogenate, TBARS, mean ± SEM, n = 3) of the same compound?
**A.** Its IC50 is 22.02 ± 0.15 µM.

**Q.** And the inhibition at 25 µM [3]?
**A.** The inhibition at 25 µM was 4.4%.

**Q.** And the inhibition at 25 µM [4]?
**A.** The inhibition at 25 µM was 13.4%.

**Q.** What about the inhibition at 25 µM [5] of the same compound?
**A.** Its inhibition at 25 µM is 14.8%.

**Q.** What about the inhibition at 25 µM [6] of the same compound?
**A.** The inhibition at 25 µM was 0%.

**Q.** What about the inhibition at 25 µM [7] of the same compound?
**A.** The inhibition at 25 µM was 0%.

**Q.** And the inhibition at 25 µM [8]?
**A.** Its inhibition at 25 µM is 0%.

— PMC9919861, “Homoleptic Complexes of Heterocyclic Curcuminoids with Mg(II) and Cu(II): First Conformationally Heteroleptic Case, Crystal Structures, and Biological Properties” (Molecules, 2023)
